The text below walks through data of patent publication US20250354993A1, “METHODS OF TREATING AND DIAGNOSING LUNG CANCER” (Yeda Research and Development Co. Ltd., priority 2019, published 2025).

One experiment deals with PSME4. Kind of experiment: Western blot of A549 cells treated with mizoribine. Format: cell-based. The settings on record: purine synthesis blocked using mizoribine, FIG. 26B. Here is the method:
FIG. 26A-B. PSME4 expression correlates with increased Pyrimidine and decreased Purine metabolites. (A) The log 2 fold change in abundance of cellar metabolites in PSME4 high or low expressing cell lines (x axis) is plotted against the significance of the change. […] (B) A549 cells were treated with mizoribine for the time indicated and then separated by SDS-PAGE and analyzed by Western blot probed with the following antibodies: PSME4, LMP7 (PSMB8), PSMB10, pana (recognized all PSMA subunits), and β actin. Cell Culture and Treatments: A549 cells were grown in DMEM supplemented with 10% fetal bovine serum, 1% Penicillin/streptomycin and L-glutamine (2 mM) (Biological industries) at 37° C. with 5% CO2. Cells were treated with 400 U*mL−1 TNFαand/or 200 U*mL-1 IFNγ (peprotech) for the indicated amount of time. Antibodies for Western blotting, immunoprecipitation and immunohistochemistry: Primary antibodies to the following were used: PSMA1 (hybridoma). PANα (PSMA1-7; Enzo, BML-PW8195-0025), PSME4 (Millipore Sigma HPA060922 and Proteintech 18799-1-AP), LMP7 (Cell signaling 13635), PSMB10 (Thermo Fisher PAS19146) and β-Actin (Abcam ab170325) The following secondary antibodies were used: goat anti-mouse HRP (115-035-003) and goat anti-rabbit HRP (111-035-003) (Jackson Labs).
For orientation: In western blotting, separated proteins are transferred to a membrane and probed.

The next experiment concerns proteasome. Kind of experiment: Proteasome Cleavage Reporter Assay in A549 active cell extract. Format: biochemical. The method, then:
FIGS. 33A-D Active cell extract was prepared from A549 lung cancer cells, cells treated with TNFα and IFNγ (TI) and cells treated with TI and recombinant PA200. As a control, MG132 proteasome inhibitor was added. The extracts were then incubated with LLVY-AMC (SEQ ID NO: 1) (A) or PAL-AMC (SEQ ID NO: 2) (B) for 3.5 hours and the relative fluorescence units (RFU) was measured every minute. The RFU for each condition using LLVY-AMC (SEQ ID NO: 1) (C) or PAL-AMC (SEQ ID NO: 2) (D) is shown at 1.5 and 3.5 hours across the different repeats of the experiment.
FIGS. 34A-D. Active cell extract was prepared from A549 lung cancer cells and cells treated with TNFα and IFNγ (TI). To each of these PA200 was added at a concentration of 4.7 nm (1:1) or 0.47 nm (1:10). As a control, MG132 proteasome inhibitor was added. The extracts were then incubated with LLE-AMC (SEQ ID NO: 3) (A), NPND-AMC (SEQ ID NO: 4) (B), LLVY-AMC (SEQ ID NO: 1) (C) or LLE-BNA (SEQ ID NO: 5) (D) for 3.5 hours and the relative fluorescence units (RFU) was measured every minute.
Proteasome Cleavage Reporter Assay: A549 cells, stimulated with TNFα and IFNγ for the indicated times, were collected and flash frozen. Frozen cells were re-suspended in lysis buffer (25 mM sucrose, 50 mM TRIS pH 7.4, 5 mM MgCl2, 0.5 mM EDTA, 2 mM ATP, 1 mM DTT). Lysates were passed 10 times through a 27 G needle, incubated on ice for 15 min and the centrifuged at 21130rcf for 10 min. Protein concentrations were measured using the Coomassie Plus (Bradford) Assay Kit (Pierce, ThermoFisher Scientific). […] of cellular lysate was incubated with 0.1 mM suc-LLVY-AMC (SEQ ID NO: 1), ac-PAL-AMC (SEQ ID NO: 2), Z-LLE-AMC (SEQ ID NO: 3) (Biotest), ac-NPND-AMC (SEQ ID NO: 4) and Z-LLE-βNA (SEQ ID NO: 5) (bachem) as per protocol and fluorescence levels were measured over time using a BioTek Synergy H1 plate reader (Ex: 360 nm, Em: 460 nm). The background protease activity was determined for each condition from an identically prepared sample with the addition of Mg132 proteasome inhibitor (0.04 mM; Calbiochem). […]

Where [1] appears, read: A549 extract, PA200 added at 4.7 nm (1:1) or 0.47 nm (1:10), FIG. 34A-D.

Regarding `NC(=O)c1ncn([C@@H]2O[C@H](CO)[C@@H](O)[C@H]2O)c1O` [mizoribine], in the experiment on PSME4, the PSME4 expression entry is “decrease in PSME4 expression”.
On to “recombinant PSME4: recombinant Proteasome activator complex subunit 4 (PA200) added to A549 cell extract”, for which, in the experiment on proteasome (A549 cells treated with TNFα and IFNγ plus recombinant PA200, LLVY-AMC or PAL-AMC, FIG. 33A-D), the “effect on the TNFα and IFNγ induced increase in proteasome cleavage” value is on record as “partially reduced”. For the same molecule, in the experiment on proteasome (setting [1]), the “chymotryptic cleavage (suc-LLVY-AMC)” value is “reduction of activity” and the “constitutive proteasome caspase like activity (NPND-AMC + LLE-βNA)” value was “induces the activity”.
